Measured values published in article PMC7501296, “Rapid and direct control of target protein levels with VHL-recruiting dTAG molecules” (Nature Communications, 2020).
“And” between values parts separate entries of the source, which are not always exact repeats. Equal entries are not always repeated.

Columns and labels:
Assay type in all cases: cell-based
[1] = test system: PATU-8902 LACZ-FKBP12^F36V clone; experiment: Antiproliferation, PATU-8902 LACZ-FKBP12F36V clone, 3D-spheroid (CellTiter-Glo); conditions: 120 h
How it was run: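 Viability of cells grown as ultra-low adherent 3D-spheroids was determined with the CellTiter-Glo reagent (Promega). Luminescence was read on either an Envision 2104 plate reader (PerkinElmer) or a Fluostar Omega Reader (BMG Labtech). The resulting data were analyzed with GraphPad PRISM v8.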

[2] = target: T1, FKBP12^F36V-Nluc (Homo sapiens, UniProt P62942, F37V); experiment: FKBP12F36V-Nluc dual luciferase assay (293FT); conditions: 293FT, 24 h
T1 construct: expressed in transfected cells; host or cells: 293FT
How it was run: (§1)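 293FT cells expressing FKBP12^WT-Nluc or FKBP12^F36V-Nluc with Fluc were treated with compound for 24 h at 37 °C. Fluc, then Nluc, luminescence was read with Dual-Glo reagents. Values are DMSO-normalised Nluc/Fluc ratios.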

[3] = test system: PATU-8902 FKBP12^F36V-KRAS^G12V; KRAS^-/- clone; experiment: Antiproliferation, PATU-8902 FKBP12F36V-KRASG12V; KRAS-/- clone, 2D-monolayer (CellTiter-Glo)
[4] = test system: PATU-8902 LACZ-FKBP12^F36V clone; experiment: Antiproliferation, PATU-8902 LACZ-FKBP12F36V clone, 2D-monolayer (CellTiter-Glo)
How it was run: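 Viability of cells grown as 2D-adherent monolayers was determined with the CellTiter-Glo luminescent reagent (Promega). Luminescence signals were read on either an Envision 2104 plate reader (PerkinElmer) or a Fluostar Omega Reader (BMG Labtech), and the resulting data were processed and analyzed in GraphPad PRISM v8 software.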

[5] = target: T2, FKBP12^WT-Nluc (Homo sapiens, UniProt P62942); experiment: FKBP12WT-Nluc dual luciferase assay (293FT); conditions: 293FT, 24 h
T2 construct: expressed in transfected cells; host or cells: 293FT
How it was run: as §1

[6] = test system: PATU-8902 FKBP12^F36V-KRAS^G12V; KRAS^-/- clone; experiment: Antiproliferation, PATU-8902 FKBP12F36V-KRASG12V; KRAS-/- clone, 3D-spheroid (CellTiter-Glo); conditions: 120 h; for DMSO-normalized antiproliferation: FKBP12F36V-KRASG12V, KRAS-/-, 3D-spheroid
How it was run: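 Viability of cells grown as ultra-low adherent 3D-spheroids was determined with CellTiter-Glo (Promega). Luminescence readings were taken on an Envision 2104 plate reader (PerkinElmer) and a Fluostar Omega Reader (BMG Labtech), and the resulting data were processed in GraphPad PRISM v8 to assess effects on cell proliferation.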

[7] = log10[compound] (M) -5.69897, single replicates
[8] = log10[compound] (M) -6.19897, single replicates
[9] = log10[compound] (M) -6.69897, single replicates
[10] = log10[compound] (M) -7.19897, single replicates
[11] = log10[compound] (M) -7.69897, single replicates
[12] = log10[compound] (M) -5.69897, replicate values
[13] = log10[compound] (M) -6.19897, replicate values
[14] = log10[compound] (M) -6.69897, replicate values
[15] = log10[compound] (M) -7.19897, replicate values
[16] = log10[compound] (M) -7.69897, replicate values
[17] = log10[compound] (M) -8.19897, replicate values
[18] = log10[compound] (M) -8.69897, replicate values
[19] = log10[compound] (M) -9.19897, replicate values
[20] = log10[compound] (M) -9.69897, replicate values
[21] = log10[compound] (M) -10.199, replicate values

T1 sequence (P62942 2-108 F37V limits assumed): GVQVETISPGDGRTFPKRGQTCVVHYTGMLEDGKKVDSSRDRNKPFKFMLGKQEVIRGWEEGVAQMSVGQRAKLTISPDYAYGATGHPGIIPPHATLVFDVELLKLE
T2 sequence (P62942 2-108 limits assumed): as the sequence (P62942 2-108 F37V limits assumed) above, with V36F counted along it

CC[C@H](C(=O)N1CCCC[C@H]1C(=O)O[C@H](CCc1ccc(OC)c(OC)c1)c1ccccc1OCC(=O)NCCCCCCC(=O)N[C@H](C(=O)N1C[C@H](O)C[C@H]1C(=O)N[C@@H](C)c1ccc(-c2scnc2C)cc1)C(C)(C)C)c1cc(OC)c(OC)c(OC)c1 [dTAG^V-1]
DMSO-normalized antiproliferation [1, 7]: 79.9207 and 69.7647 and 81.656 and 63.0972 | DMSO-normalized antiproliferation [1, 8]: 90.8255 and 93.4576 and 97.8876 and 88.6015 | DMSO-normalized antiproliferation [1, 9]: 116.805 and 103.649 and 110.913 and 111.967 | DMSO-normalized antiproliferation [1, 10]: 115.092 and 118.114 and 123.495 and 124.235 | DMSO-normalized antiproliferation [1, 11]: 125.383 and 125.544 and 131.956 and 99.7395 | DMSO-normalized antiproliferation ([1]; log10[compound] (M) -8.19897, single replicates): 91.6326 and 122.778 and 124.271 and 121.832 | DMSO-normalized antiproliferation ([1]; log10[compound] (M) -8.69897, single replicates): 107.048 and 111.088 and 112.061 and 114.671 | DMSO-normalized antiproliferation ([1]; log10[compound] (M) -9.19897, single replicates): 123.177 and 113.909 and 103.784 and 113.953 | DMSO-normalized antiproliferation ([1]; log10[compound] (M) -9.69897, single replicates): 118.276 and 100.412 and 114.859 and 101.744 | DMSO-normalized antiproliferation ([1]; log10[compound] (M) -10.199, single replicates): 96.4797 and 95.686 and 104.084 and 100.448 | Degradation of FKBP12F36V-Nluc (in words) [2]: potent degradation | DMSO-normalized antiproliferation ([3]; log10[compound] (M) -4.69897): 20.6105 and 17.3638 and 20.4315 and 22.7846 | DMSO-normalized antiproliferation ([3]; log10[compound] (M) -5.19897): 21.3993 and 17.4773 and 18.2 and 18.6602 | DMSO-normalized antiproliferation ([3]; log10[compound] (M) -5.69897): 16.8112 and 15.7934 and 16.8516 and 16.7935 | DMSO-normalized antiproliferation [3, 12]: 4.6597 and 4.418 and 4.149 and 3.87 | DMSO-normalized antiproliferation ([3]; log10[compound] (M) -6.19897): 20.0987 and 17.9241 and 20.6309 and 19.478 | DMSO-normalized antiproliferation [3, 13]: 5.446 and 5.94 and 6.406 and 4.294 | DMSO-normalized antiproliferation ([3]; log10[compound] (M) -6.69897): 25.9066 and 20.9075 and 21.5913 and 21.1711 | DMSO-normalized antiproliferation [3, 14]: 8.244 and 7.637 and 8.006 and 6.772 | DMSO-normalized antiproliferation ([3]; log10[compound] (M) -7.19897): 27.2696 and 25.1897 and 32.757 and 26.1725 | DMSO-normalized antiproliferation [3, 15]: 9.134 and 8.1 and 7.928 and 7.914 | DMSO-normalized antiproliferation ([3]; log10[compound] (M) -7.69897): 32.5281 and 28.8466 and 33.2484 and 29.8055 | DMSO-normalized antiproliferation [3, 16]: 23.295 and 23.6499 and 25.1438 and 20.7638 | DMSO-normalized antiproliferation ([3]; log10[compound] (M) -8.19897): 71.5602 and 70.7086 and 72.3533 and 72.4741 | DMSO-normalized antiproliferation [3, 17]: 58.7893 and 63.6738 and 62.8905 and 55.3819 | DMSO-normalized antiproliferation ([3]; log10[compound] (M) -8.69897): 90.0484 and 84.5598 and 93.7922 and 91.6223 | DMSO-normalized antiproliferation [3, 18]: 97.0333 and 109.013 and 119.265 and 75.6713 | DMSO-normalized antiproliferation ([3]; log10[compound] (M) -9.19897): 99.7014 and 102.892 and 91.8028 and 106.019 | DMSO-normalized antiproliferation [3, 19]: 104.958 and 110.142 and 126.275 and 110.446 | DMSO-normalized antiproliferation [3, 20]: 77.7582 and 88.137 and 113.958 and 92.6055 | DMSO-normalized antiproliferation [3, 21]: 96.7023 and 108.197 and 96.9121 and 90.9372 | DMSO-normalized antiproliferation [4, 12]: 35.4292 and 29.4521 and 35.0517 and 31.6104 | DMSO-normalized antiproliferation [4, 13]: 87.2455 and 81.8203 and 77.0995 and 64.2664 | DMSO-normalized antiproliferation ([4]; log10[compound] (M) -6.69897): 102.668 and 99.5089 and 89.7578 and 106.231 | DMSO-normalized antiproliferation [4, 14]: 124.825 and 81.8259 and 133.331 and 119.877 | DMSO-normalized antiproliferation ([4]; log10[compound] (M) -7.19897): 90.1193 and 111.795 and 91.2446 and 98.3924 | DMSO-normalized antiproliferation [4, 15]: 118.009 and 93.8067 and 130.572 and 123.376 | DMSO-normalized antiproliferation ([4]; log10[compound] (M) -7.69897): 112.909 and 117.897 and 108.192 and 99.266 | DMSO-normalized antiproliferation [4, 16]: 133.195 and 132.373 and 134.672 and 120.383 | DMSO-normalized antiproliferation ([4]; log10[compound] (M) -8.19897): 101.415 and 100.309 and 97.138 and 102.461 | DMSO-normalized antiproliferation [4, 17]: 136.88 and 106.56 and 99.7166 and 163.283 | DMSO-normalized antiproliferation ([4]; log10[compound] (M) -8.69897): 103.413 and 90.0724 and 92.9073 and 97.9489 | DMSO-normalized antiproliferation [4, 18]: 148.548 and 115.202 and 143.359 and 119.836 | DMSO-normalized antiproliferation [4, 19]: 116.491 and 96.4785 and 115.962 and 80.4138 | DMSO-normalized antiproliferation [4, 20]: 139.57 and 103.845 and 96.4961 and 122.632 | DMSO-normalized antiproliferation [4, 21]: 133.817 and 113.621 and 96.1958 and 88.4566 | Effect on FKBP12WT-Nluc (in words) [5]: no effects | Cell proliferation upon FKBP12F36V-KRASG12V degradation ([6]; 2D-monolayer and 3D-spheroid cultures): diminished cell proliferation | DMSO-normalized antiproliferation [6, 7]: 14.2222 and 15.5085 and 18.1313 and 19.3564 | DMSO-normalized antiproliferation [6, 8]: 19.4455 and 15.9874 and 15.9651 and 15.7814 | DMSO-normalized antiproliferation [6, 9]: 16.8171 and 16.5888 and 12.056 and 15.8705 | DMSO-normalized antiproliferation [6, 10]: 11.0759 and 11.8444 and 17.6524 and 14.6677 | DMSO-normalized antiproliferation [6, 11]: 20.7875 and 17.3072 and 22.4693 and 16.2436
